Laboratory results published in article PMC10763615, “Identification and engineering of potent cyclic peptides with selective or promiscuous binding through biochemical profiling and bioinformatic data analysis” (RSC Chemical Biology, 2023).
Like-named read-outs stand apart in the source and are kept apart here.

Experiments:
[1] = molecular target: T1, FGF-R1C ECD (Homo sapiens, UniProt P11362); assay: biochemical
T1 sequence (P11362 22-376 limits assumed): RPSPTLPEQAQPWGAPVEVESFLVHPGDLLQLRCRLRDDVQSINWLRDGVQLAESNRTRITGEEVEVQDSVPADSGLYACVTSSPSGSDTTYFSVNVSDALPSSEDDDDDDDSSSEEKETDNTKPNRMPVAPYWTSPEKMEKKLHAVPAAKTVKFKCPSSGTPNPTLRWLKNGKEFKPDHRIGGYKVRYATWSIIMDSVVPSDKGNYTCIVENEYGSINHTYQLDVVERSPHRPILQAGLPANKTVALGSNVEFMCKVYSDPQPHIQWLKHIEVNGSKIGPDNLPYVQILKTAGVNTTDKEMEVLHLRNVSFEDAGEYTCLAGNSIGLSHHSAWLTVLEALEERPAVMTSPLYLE
How it was run: (§1)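 Streptavidin biosensors carrying biotinylated FGF receptor ECD were immersed in peptide (~1 μM for crude single-point runs, a concentration series for purified peptides) and then in peptide-free buffer. KD was obtained by fitting the BLI association and dissociation curves.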

[2] = molecular target: T2, FGF-R3C ECD (Homo sapiens, UniProt P22607); assay: biochemical
T2 sequence (P22607 23-375 limits assumed): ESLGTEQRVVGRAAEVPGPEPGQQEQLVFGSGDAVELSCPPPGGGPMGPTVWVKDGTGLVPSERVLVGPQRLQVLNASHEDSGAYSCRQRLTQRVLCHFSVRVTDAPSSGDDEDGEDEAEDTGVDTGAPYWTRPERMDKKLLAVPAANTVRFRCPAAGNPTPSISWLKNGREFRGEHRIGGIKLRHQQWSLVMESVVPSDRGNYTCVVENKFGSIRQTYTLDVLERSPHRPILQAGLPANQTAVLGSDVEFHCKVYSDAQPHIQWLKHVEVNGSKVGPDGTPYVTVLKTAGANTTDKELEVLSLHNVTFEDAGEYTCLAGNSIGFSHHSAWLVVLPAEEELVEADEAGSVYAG
How it was run: as §1

[3] = molecular target: T3, FGF-R4 ECD (Homo sapiens, UniProt P22455); assay: multi-concentration BLI of purified peptides; format: binding; conditions: purified NNK library peptides
T3 construct: DNA constructs for the extracellular domain (ECD) of human FGF-; HPC4 (C); made in house; host or cells: HEK 293-6E
T3 sequence (P22455 22-369 limits assumed): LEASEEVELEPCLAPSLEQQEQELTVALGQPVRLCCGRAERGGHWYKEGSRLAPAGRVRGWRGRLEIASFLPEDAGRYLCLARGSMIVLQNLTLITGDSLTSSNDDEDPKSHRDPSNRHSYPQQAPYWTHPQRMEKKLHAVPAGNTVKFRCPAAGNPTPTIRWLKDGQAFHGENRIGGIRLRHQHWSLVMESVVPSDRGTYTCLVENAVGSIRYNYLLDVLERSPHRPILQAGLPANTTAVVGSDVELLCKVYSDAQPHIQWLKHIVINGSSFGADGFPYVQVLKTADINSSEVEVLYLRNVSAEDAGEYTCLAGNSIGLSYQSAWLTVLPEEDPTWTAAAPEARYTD
How it was run: as §1

[4] = molecular target: T3, FGF-R4 ECD; assay: single concentration BLI of crude peptides; format: binding; conditions: crude NNK peptides, single concentration BLI (Table S3); read-out: KD (4)
How it was run: as §1

[5] = molecular target: T4, FGFR1c/KLB (Fc-fused human FGF-R1alpha(IIIc) with beta-klotho) (Homo sapiens, UniProt P11362); assay: AlphaScreen FGF21 competitive binding assay
T4 sequence (P11362 22-376 limits assumed): T1 sequence (P11362 22-376 limits assumed)
Procedure: Alphascreen binding assay
The competitive binding assay was carried out according to the methods detailed in Hansen. et al using
AlphaScreen.3 All reagents and samples were prepared in assay buffer: 40mM Hepes, 140mM NaCl, 1mM
CaCl2, 0,05% Tween20, pH=7.5, 0.1% BSA. In brief, recombinant human beta-klotho (R&D Systems) was
preincubated for 60 min with the ectodomain, either Fc-fused human FGF-R1alpha(IIIc), FGF-R3alpha(IIIc)
or FGF-R4 (R&D Systems), and the mixture was added to the test peptides in OptiPlate™ (PerkinElmer).
Biotinylated FGF21 and heparin were further added to each well. AlphaScreen bead mix (1:1 mix of Protein
A acceptor beads/ streptavidin-coated donor beads, PerkinElmer) were added to each well incubated
overnight at RT in the dark, and measured on a plate reader (Envision). Assays were carried out in triplicates
with concentrations ranging from 3, 10, 30, 100, 300 ,1000 and 3000 nM of peptide. No peptide control
(media only) was used as a negative control, and unlabeled FGF21 and FGF1 as positive control.
competing with biotinylated natural FGF21 ligand.

[6] = molecular target: T5, FGFR3c/BKL (Fc-fused human FGF-R3alpha(IIIc) with beta-klotho) (Homo sapiens, UniProt P22607); assay: AlphaScreen FGF21 competitive binding assay
T5 sequence (P22607 23-375 limits assumed): T2 sequence (P22607 23-375 limits assumed)

[7] = molecular target: T6, FGFR4/KLB (Fc-fused human FGF-R4 with beta-klotho) (Homo sapiens, UniProt P22455); assay: AlphaScreen FGF21 competitive binding assay
T6 sequence (P22455 22-369 limits assumed): T3 sequence (P22455 22-369 limits assumed)

[8] = molecular target: T1, FGF-R1C ECD; assay: biochemical; format: binding; design: DNA constructs for the extracellular domain (ECD) of human FGF-; HPC4 (C); made in house; host or cells: HEK 293-6E
How it was run: (§2)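 Biotinylated FGF-R ECD on streptavidin biosensors was dipped into ~1 μM crude peptide in PBS pH7.4 with 0.05% Tween-20 and 0.01% BSA for association, then into buffer for dissociation, and followed by BLI. Fitted KD values were adjusted for peptide concentration measured by UPLC-CAD.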

[9] = molecular target: T2, FGF-R3C ECD; assay: biochemical; format: binding; design: DNA constructs for the extracellular domain (ECD) of human FGF-; HPC4 (C); made in house; host or cells: HEK 293-6E
How it was run: as §2

SMILES: CSCC[C@H](NC(C)=O)C(=O)N[C@H]1CSSC[C@@H](C(=O)NCC(=O)N[C@@H](CO)C(=O)NCC(=O)N[C@@H](CO)C(=O)N[C@@H](CC(=O)O)C(=O)N[C@@H](Cc2ccc(O)cc2)C(=O)N[C@@H](CCCCN)C(=O)N[C@@H](CC(=O)O)C(=O)N[C@@H](CC(=O)O)C(=O)N[C@@H](CC(=O)O)C(=O)N[C@@H](CC(=O)O)C(=O)N[C@@H](CCCCN)C(N)=O)NC(=O)[C@H](CO)NC(=O)[C@H](Cc2c[nH]cn2)NC(=O)[C@H](Cc2c[nH]c3ccccc23)NC(=O)[C@H](Cc2c[nH]cn2)NC(=O)[C@H](CCCNC(=N)N)NC(=O)[C@H]([C@@H](C)O)NC(=O)[C@H](Cc2ccc(O)cc2)NC(=O)[C@H](CC(C)C)NC(=O)[C@H](CC(N)=O)NC(=O)[C@H](Cc2c[nH]c3ccccc23)NC(=O)[C@H](CCC(N)=O)NC(=O)[C@H](CCC(N)=O)NC1=O [3C.4]
- Kd [1]: > 1000 nM
- Kd [2]: > 1000 nM
- R3C KD (nM) ([2]; purified NNK library peptides, multi-concentration BLI): could not detect any binding
- Kd [3]: > 1000 nM
- Kd [4]: > 10000 nM
- IC50 [5]: > 1000 nM
- IC50 [6]: 71 nM
- R3C competitive IC50 (nM) ([6]; purified peptides, Alphascreen vs biotinylated FGF21): efficiently competes with FGF21
- IC50 [7]: > 1000 nM
- Kd [8]: > 10000 nM
- Kd [9]: > 10000 nM

SMILES: CC[C@H](C)[C@@H]1NC(=O)[C@@H](NC(=O)[C@H](CCSC)NC(C)=O)CSSC[C@@H](C(=O)NCC(=O)N[C@@H](CO)C(=O)NCC(=O)N[C@@H](CO)C(=O)N[C@@H](CC(=O)O)C(=O)N[C@@H](Cc2ccc(O)cc2)C(=O)N[C@@H](CCCCN)C(=O)N[C@@H](CC(=O)O)C(=O)N[C@@H](CC(=O)O)C(=O)N[C@@H](CC(=O)O)C(=O)N[C@@H](CC(=O)O)C(=O)N[C@@H](CCCCN)C(N)=O)NC(=O)[C@H](C(C)C)NC(=O)[C@H](C(C)C)NC(=O)[C@H](Cc2c[nH]c3ccccc23)NC(=O)[C@H](Cc2ccccc2)NC(=O)[C@H](CC(=O)O)NC(=O)[C@H](CO)NC(=O)[C@H](CC(C)C)NC(=O)[C@H](CCCNC(=N)N)NC(=O)[C@H](Cc2ccc(O)cc2)NC1=O [1C.6]
- Kd [1]: 53 nM
- Kd [2]: 361 nM
- Kd [3]: 70 nM
- Kd [4]: 47 nM
- IC50 [5]: 29 nM
- IC50 [6]: 18 nM
- IC50 [7]: 60 nM
- Kd [8]: 19 nM
- Kd [9]: 12 nM

SMILES: CC[C@H](C)[C@@H]1NC(=O)[C@H](C(C)C)NC(=O)[C@H](Cc2c[nH]cn2)NC(=O)[C@@H](NC(=O)[C@H](CCSC)NC(C)=O)CSSC[C@@H](C(=O)NCC(=O)N[C@@H](CO)C(=O)NCC(=O)N[C@@H](CO)C(=O)N[C@@H](CC(=O)O)C(=O)N[C@@H](Cc2ccc(O)cc2)C(=O)N[C@@H](CCCCN)C(=O)N[C@@H](CC(=O)O)C(=O)N[C@@H](CC(=O)O)C(=O)N[C@@H](CC(=O)O)C(=O)N[C@@H](CC(=O)O)C(=O)N[C@@H](CCCCN)C(N)=O)NC(=O)[C@H](Cc2ccc(O)cc2)NC(=O)[C@H](CCCNC(=N)N)NC(=O)[C@H](Cc2c[nH]c3ccccc23)NC(=O)[C@H](CO)NC(=O)[C@H](CCCNC(=N)N)NC(=O)[C@H](Cc2c[nH]c3ccccc23)NC(=O)[C@H](CC(C)C)NC1=O [4.2]
- Kd [1]: > 1000 nM
- Kd [2]: > 1000 nM
- Kd [3]: 51 nM
- Kd [4]: 93 nM
- IC50 [5]: > 1000 nM
- IC50 [6]: > 1000 nM
- IC50 [7]: 682 nM
- Kd [8]: > 10000 nM
- Kd [9]: > 10000 nM

SMILES: CSCC[C@H](NC(C)=O)C(=O)N[C@H]1CSSC[C@@H](C(=O)NCC(=O)N[C@@H](CO)C(=O)NCC(=O)N[C@@H](CO)C(=O)N[C@@H](CC(=O)O)C(=O)N[C@@H](Cc2ccc(O)cc2)C(=O)N[C@@H](CCCCN)C(=O)N[C@@H](CC(=O)O)C(=O)N[C@@H](CC(=O)O)C(=O)N[C@@H](CC(=O)O)C(=O)N[C@@H](CC(=O)O)C(=O)N[C@@H](CCCCN)C(N)=O)NC(=O)[C@H](CC(C)C)NC(=O)[C@H](Cc2c[nH]c3ccccc23)NC(=O)[C@H](C)NC(=O)[C@H](Cc2ccccc2)NC(=O)[C@H](Cc2ccccc2)NC(=O)[C@H](Cc2c[nH]c3ccccc23)NC(=O)[C@@H]2CCCN2C(=O)[C@H](Cc2c[nH]cn2)NC(=O)[C@H](CCCCN)NC(=O)[C@H](Cc2ccccc2)NC1=O [4.5]
- Kd [1]: > 1000 nM
- Kd [2]: > 1000 nM
- Kd [3]: 233 nM
- Kd [4]: 35 nM
- IC50 [5]: > 1000 nM
- IC50 [6]: > 1000 nM
- IC50 [7]: 284 nM
- Kd [8]: > 10000 nM
- Kd [9]: > 10000 nM

SMILES: CC[C@H](C)[C@@H]1NC(=O)[C@@H](NC(=O)[C@@H](N)CCSC)CSSC[C@@H](C(=O)NCC(=O)N[C@@H](CO)C(=O)NCC(=O)N[C@@H](CO)C(=O)N[C@@H](CC(=O)O)C(=O)N[C@@H](Cc2ccc(O)cc2)C(=O)N[C@@H](CCCCN)C(=O)N[C@@H](CC(=O)O)C(=O)N[C@@H](CC(=O)O)C(=O)N[C@@H](CC(=O)O)C(=O)N[C@@H](CC(=O)O)C(=O)N[C@@H](CCCCN)C(N)=O)NC(=O)[C@H](CCCNC(=N)N)NC(=O)[C@H]([C@@H](C)O)NC(=O)[C@H](Cc2c[nH]c3ccccc23)NC(=O)[C@H](Cc2ccc(O)cc2)NC(=O)[C@H](CCC(N)=O)NC(=O)[C@H](Cc2ccc(O)cc2)NC(=O)[C@H]([C@@H](C)O)NC(=O)[C@H](Cc2ccc(O)cc2)NC(=O)[C@H](Cc2c[nH]c3ccccc23)NC(=O)[C@H](CCCCN)NC(=O)CNC1=O [1C.1]
- Kd [1]: 111 nM
- Kd [2]: > 1000 nM
- Kd [3]: > 1000 nM
- Kd [4]: > 10000 nM
- IC50 [5]: 249 nM
- IC50 [6]: > 1000 nM
- IC50 [7]: > 1000 nM
- Kd [8]: 488 nM
- Kd [9]: > 10000 nM

SMILES: CC[C@H](C)[C@@H]1NC(=O)[C@H](Cc2c[nH]c3ccccc23)NC(=O)[C@@H]2CCCN2C(=O)[C@H](CCC(=O)O)NC(=O)[C@@H](NC(=O)[C@H](CCSC)NC(C)=O)CSSC[C@@H](C(=O)NCC(=O)N[C@@H](CO)C(=O)NCC(=O)N[C@@H](CO)C(=O)N[C@@H](CC(=O)O)C(=O)N[C@@H](Cc2ccc(O)cc2)C(=O)N[C@@H](CCCCN)C(=O)N[C@@H](CC(=O)O)C(=O)N[C@@H](CC(=O)O)C(=O)N[C@@H](CC(=O)O)C(=O)N[C@@H](CC(=O)O)C(=O)N[C@@H](CCCCN)C(N)=O)NC(=O)[C@H](CCCCN)NC(=O)[C@H](CCCCN)NC(=O)[C@H](CC(C)C)NC(=O)[C@H](C(C)C)NC(=O)[C@H](CCCCN)NC(=O)[C@H](Cc2ccc(O)cc2)NC(=O)[C@H]([C@@H](C)CC)NC(=O)[C@H]([C@@H](C)O)NC1=O [4.8]
- Kd [1]: > 1000 nM
- Kd [2]: > 1000 nM
- Kd [3]: 478 nM
- Kd [4]: 287 nM
- IC50 [5]: > 1000 nM
- IC50 [6]: > 1000 nM
- IC50 [7]: 945 nM
- Kd [8]: > 10000 nM
- Kd [9]: 1250 nM
